Where two headings read alike, the source gives them in different places.
What was measured:
IKKε = IKKε (Homo sapiens (Human), UniProt Q14164); assay: IKKε TR-FRET enzymatic assay; format: biochemical; details: read-out: IKKe IC50
TBK1 = TBK1 (Homo sapiens (Human), UniProt Q9UHD2); assay: TBK1 TR-FRET enzymatic assay;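 further: phosphorylation of a biotinylated Ser/Thr peptide by purified full-length recombinant TBK1, read by TR-FRET after 240 min at 25 °C, IC50 is the geometric mean of at least four runs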
Chain of TBK1 (Q9UHD2 whole entry): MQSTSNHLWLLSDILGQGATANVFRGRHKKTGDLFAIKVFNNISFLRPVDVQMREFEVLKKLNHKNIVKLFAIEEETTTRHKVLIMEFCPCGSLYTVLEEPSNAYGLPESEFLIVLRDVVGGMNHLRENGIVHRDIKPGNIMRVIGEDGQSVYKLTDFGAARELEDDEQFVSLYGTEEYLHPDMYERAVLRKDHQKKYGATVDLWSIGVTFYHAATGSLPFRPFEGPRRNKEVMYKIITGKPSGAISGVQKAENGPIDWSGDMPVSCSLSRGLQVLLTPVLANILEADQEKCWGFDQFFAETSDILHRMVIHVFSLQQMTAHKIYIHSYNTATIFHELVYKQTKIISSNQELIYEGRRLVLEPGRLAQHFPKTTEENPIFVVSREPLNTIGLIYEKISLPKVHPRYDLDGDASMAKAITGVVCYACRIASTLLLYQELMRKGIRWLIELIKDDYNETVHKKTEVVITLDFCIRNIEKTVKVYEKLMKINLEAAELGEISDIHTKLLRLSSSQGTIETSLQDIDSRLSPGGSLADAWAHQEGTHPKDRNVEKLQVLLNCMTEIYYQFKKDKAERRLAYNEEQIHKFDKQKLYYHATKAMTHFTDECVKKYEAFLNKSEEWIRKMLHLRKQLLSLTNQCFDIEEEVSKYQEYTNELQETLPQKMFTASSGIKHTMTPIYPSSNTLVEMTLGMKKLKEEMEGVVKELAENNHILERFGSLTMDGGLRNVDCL

hJAK2 = hJAK2 (Homo sapiens (Human), UniProt O60674); assay: hJAK2 LANCE TR-FRET enzymatic assay; format: biochemical; details: read-out: JAK2 IC50
Chain of hJAK2 (O60674 whole entry): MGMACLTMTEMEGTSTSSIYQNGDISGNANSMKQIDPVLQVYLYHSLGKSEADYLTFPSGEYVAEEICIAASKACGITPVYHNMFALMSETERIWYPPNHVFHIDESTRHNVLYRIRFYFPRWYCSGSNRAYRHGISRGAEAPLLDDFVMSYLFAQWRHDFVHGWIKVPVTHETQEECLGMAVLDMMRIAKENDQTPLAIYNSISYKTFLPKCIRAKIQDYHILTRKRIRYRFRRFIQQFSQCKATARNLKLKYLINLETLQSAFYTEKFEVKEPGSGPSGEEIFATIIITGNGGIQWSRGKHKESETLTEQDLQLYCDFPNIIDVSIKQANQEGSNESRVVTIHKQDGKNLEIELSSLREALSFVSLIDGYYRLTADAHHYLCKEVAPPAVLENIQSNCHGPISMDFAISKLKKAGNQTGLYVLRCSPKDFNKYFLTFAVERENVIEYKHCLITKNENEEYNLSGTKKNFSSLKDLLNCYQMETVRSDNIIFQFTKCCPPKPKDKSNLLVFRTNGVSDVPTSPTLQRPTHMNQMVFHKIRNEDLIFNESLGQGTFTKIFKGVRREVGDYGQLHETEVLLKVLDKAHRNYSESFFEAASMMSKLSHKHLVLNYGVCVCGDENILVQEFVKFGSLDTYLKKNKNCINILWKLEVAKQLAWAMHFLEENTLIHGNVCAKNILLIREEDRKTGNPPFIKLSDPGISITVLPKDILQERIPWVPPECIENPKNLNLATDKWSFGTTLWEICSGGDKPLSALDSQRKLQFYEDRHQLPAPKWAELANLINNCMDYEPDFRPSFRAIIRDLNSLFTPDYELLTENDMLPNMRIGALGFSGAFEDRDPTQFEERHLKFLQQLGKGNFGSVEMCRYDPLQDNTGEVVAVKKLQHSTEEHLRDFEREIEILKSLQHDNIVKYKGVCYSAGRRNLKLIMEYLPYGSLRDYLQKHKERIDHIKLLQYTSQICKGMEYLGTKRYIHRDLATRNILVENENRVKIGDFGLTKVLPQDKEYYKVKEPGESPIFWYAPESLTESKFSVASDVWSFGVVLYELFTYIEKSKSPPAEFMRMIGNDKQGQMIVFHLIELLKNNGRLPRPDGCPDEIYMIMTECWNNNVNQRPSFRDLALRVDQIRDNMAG

Chain of IKKε (Q14164 whole entry): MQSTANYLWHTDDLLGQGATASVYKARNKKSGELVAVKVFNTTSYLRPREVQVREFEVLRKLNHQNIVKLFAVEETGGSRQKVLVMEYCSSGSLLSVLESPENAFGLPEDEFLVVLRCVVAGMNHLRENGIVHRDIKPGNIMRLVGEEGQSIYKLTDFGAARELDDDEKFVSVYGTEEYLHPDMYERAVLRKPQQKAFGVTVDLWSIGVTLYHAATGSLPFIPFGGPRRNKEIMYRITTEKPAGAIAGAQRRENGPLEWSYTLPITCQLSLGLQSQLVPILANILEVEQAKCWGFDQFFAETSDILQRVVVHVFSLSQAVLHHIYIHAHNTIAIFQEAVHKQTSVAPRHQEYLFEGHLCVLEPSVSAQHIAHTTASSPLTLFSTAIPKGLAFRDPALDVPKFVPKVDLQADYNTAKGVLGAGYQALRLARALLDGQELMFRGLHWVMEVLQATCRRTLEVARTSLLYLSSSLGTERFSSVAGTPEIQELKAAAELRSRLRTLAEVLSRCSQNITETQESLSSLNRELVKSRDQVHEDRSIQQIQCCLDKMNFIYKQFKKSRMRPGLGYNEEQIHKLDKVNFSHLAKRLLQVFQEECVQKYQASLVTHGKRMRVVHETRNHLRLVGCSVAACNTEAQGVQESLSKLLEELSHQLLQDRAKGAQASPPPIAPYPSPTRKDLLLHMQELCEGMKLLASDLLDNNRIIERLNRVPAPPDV

SMILES	IC50 (IKKε)	IC50 (TBK1)	IC50 (hJAK2)	IC50 (TBK1; TBK1 IC50)
CC1CC(Oc2ccc(-c3ncnc(Nc4ccc(N5CCN(C6COC6)CC5)cc4)n3)cc2C#N)CC(C)N1C(=O)CO (stereo not drawn) [Example 171, 2-((1-(2-hydroxyacetyl)-2,6-dimethylpiperidin-4-yl)oxy)-5-(4-((4-(4-(oxetan-3-yl)piperazin-1-yl)phenyl)amino)-1,3,5-triazin-2-yl)benzonitrile]	9 nM	2 nM	463 nM	–
N#Cc1cc(-c2ncnc(Nc3ccc(N4CCN(C5COC5)CC4)cc3)n2)ccc1OC1C2CC1CN(C(=O)CO)C2 (stereo not drawn) [Example 172, 2-((3-(2-hydroxyacetyl)-3-azabicyclo[3.1.1]heptan-6-yl)oxy)-5-(4-((4-(4-(oxetan-3-yl)piperazin-1-yl)phenyl)amino)-1,3,5-triazin-2-yl)benzonitrile]	676 nM	72 nM	≥ 1000 nM	–
N#Cc1cc(-c2ncnc(Nc3ccc(N4CCN(C5COC5)CC4)cc3)n2)ccc1OC1CC2CCC(C1)N2C(=O)CO (stereo not drawn) [Example 173, 2-((8-(2-hydroxyacetyl)-8-azabicyclo[3.2.1]octan-3-yl)oxy)-5-(4-((4-(4-(oxetan-3-yl)piperazin-1-yl)phenyl)amino)-1,3,5-triazin-2-yl)benzonitrile]	218 nM	–	265 nM	92 nM
CC1(C)CN(C(=O)CO)CC(F)C1Oc1ccc(-c2ncnc(Nc3ccc(N4CCN(C5COC5)CC4)cc3)n2)cc1C#N (stereo not drawn) [Example 177, 2-((5-fluoro-1-(2-hydroxyacetyl)-3,3-dimethylpiperidin-4-yl)oxy)-5-(4-((4-(4-(oxetan-3-yl)piperazin-1-yl)phenyl)amino)-1,3,5-triazin-2-yl)benzonitrile]	3 nM	6 nM	117 nM	–
C[C@H](O)C(=O)N1CC(F)C(Oc2ccc(-c3ncnc(Nc4ccc(N5CCN(C6COC6)CC5)cc4)n3)cc2C#N)C(C)(C)C1 (stereo partly drawn) [Example 180, 2-((5-fluoro-1-((S)-2-hydroxypropanoyl)-3,3-dimethylpiperidin-4-yl)oxy)-5-(4-((4-(4-(oxetan-3-yl)piperazin-1-yl)phenyl)amino)-1,3,5-triazin-2-yl)benzonitrile]	17 nM	11 nM	317 nM	–
C[C@H](O)C(=O)N1CC[C@H](Oc2ccc(-c3ncnc(Nc4ccc(N5CCN(C6COC6)CC5)cc4)n3)cc2C#N)C[C@@H]1C [Example 181, 2-(((2S,4S)-1-((S)-2-hydroxypropanoyl)-2-methylpiperidin-4-yl)oxy)-5-(4-((4-(4-(oxetan-3-yl)piperazin-1-yl)phenyl)amino)-1,3,5-triazin-2-yl)benzonitrile]	20 nM	10 nM	432 nM	–
C[C@@H](O)C(=O)N1CC[C@H](Oc2ccc(-c3ncnc(Nc4ccc(N5CCN(C6COC6)CC5)cc4)n3)cc2C#N)C[C@@H]1C [Example 182, 2-(((2S,4S)-1-((R)-2-hydroxypropanoyl)-2-methylpiperidin-4-yl)oxy)-5-(4-((4-(4-(oxetan-3-yl)piperazin-1-yl)phenyl)amino)-1,3,5-triazin-2-yl)benzonitrile]	95 nM	32 nM	491 nM	–
C[C@H](O)C(=O)N1CC[C@H](Oc2ccc(-c3ncnc(Nc4ccc(N5CCN(C6COC6)CC5)cc4)n3)cc2C#N)C[C@H]1C [Example 183, 2-(((2R,4S)-1-((S)-2-hydroxypropanoyl)-2-methylpiperidin-4-yl)oxy)-5-(4-((4-(4-(oxetan-3-yl)piperazin-1-yl)phenyl)amino)-1,3,5-triazin-2-yl)benzonitrile]	120 nM	50 nM	593 nM	–
C[C@@H]1C[C@@H](Oc2ccc(-c3ncnc(Nc4ccc(N5CCN(C6COC6)CC5)cc4)n3)cc2C#N)CCN1C(=O)[C@@H](C)O [Example 184, 2-(((2R,4S)-1-((R)-2-hydroxypropanoyl)-2-methylpiperidin-4-yl)oxy)-5-(4-((4-(4-(oxetan-3-yl)piperazin-1-yl)phenyl)amino)-1,3,5-triazin-2-yl)benzonitrile]	277 nM	103 nM	≥ 1000 nM	–
C[C@H](O)C(=O)N1CC[C@@H](Oc2ccc(-c3ncnc(Nc4ccc(N5CCN(C6COC6)CC5)cc4)n3)cc2C#N)C[C@H]1C [Example 185, 2-(((2R,4R)-1-((S)-2-hydroxypropanoyl)-2-methylpiperidin-4-yl)oxy)-5-(4-((4-(4-(oxetan-3-yl)piperazin-1-yl)phenyl)amino)-1,3,5-triazin-2-yl)benzonitrile]	190 nM	94 nM	≥ 1000 nM	–
C[C@@H]1C[C@H](Oc2ccc(-c3ncnc(Nc4ccc(N5CCN(C6COC6)CC5)cc4)n3)cc2C#N)CCN1C(=O)[C@@H](C)O [Example 186, 2-(((2R,4R)-1-((R)-2-hydroxypropanoyl)-2-methylpiperidin-4-yl)oxy)-5-(4-((4-(4-(oxetan-3-yl)piperazin-1-yl)phenyl)amino)-1,3,5-triazin-2-yl)benzonitrile]	312 nM	128 nM	≥ 1000 nM	–
C[C@H]1C[C@@H](Oc2ccc(-c3ncnc(Nc4ccc(N5CCN(C6COC6)CC5)cc4)n3)cc2C#N)CCN1C(=O)CC#N [Example 187, 2-(((2S,4S)-1-(2-cyanoacetyl)-2-methylpiperidin-4-yl)oxy)-5-(4-((4-(4-(oxetan-3-yl)piperazin-1-yl)phenyl)amino)-1,3,5-triazin-2-yl)benzonitrile]	13 nM	5 nM	183 nM	–
C[C@H]1C[C@@H](Oc2ccc(-c3ncnc(Nc4ccc(N5CCN(C6COC6)CC5)cc4)n3)cc2C#N)CCN1C(=O)c1cnn[nH]1 [Example 188, 2-(((2S,4S)-2-methyl-1-(1H-1,2,3-triazole-5-carbonyl)piperidin-4-yl)oxy)-5-(4-((4-(4-(oxetan-3-yl)piperazin-1-yl)phenyl)amino)-1,3,5-triazin-2-yl)benzonitrile]	5 nM	5 nM	224 nM	–
N#Cc1cc(-c2ncnc(Nc3ccc(N4CCN(C5COC5)CC4)cc3)n2)ccc1OC1CCN(C(=O)c2ccc[nH]2)CC1 [Example 190, 2-((1-(1H-pyrrole-2-carbonyl)piperidin-4-yl)oxy)-5-(4-((4-(4-(oxetan-3-yl)piperazin-1-yl)phenyl)amino)-1,3,5-triazin-2-yl)benzonitrile]	15 nM	3 nM	≥ 1000 nM	–
N#Cc1cc(-c2ncnc(Nc3ccc(N4CCN(C5COC5)CC4)cc3)n2)ccc1OC1CCN(C(=O)c2cc[nH]c2)CC1 [Example 191, 2-((1-(1H-pyrrole-3-carbonyl)piperidin-4-yl)oxy)-5-(4-((4-(4-(oxetan-3-yl)piperazin-1-yl)phenyl)amino)-1,3,5-triazin-2-yl)benzonitrile]	226 nM	67 nM	≥ 1000 nM	–
C[C@H]1CN(C(=O)CO)C[C@@H]1Oc1ccc(-c2ncnc(Nc3ccc(N4CCN(C5COC5)CC4)cc3)n2)cc1C#N [Example 192, 2-(((3R,4S)-1-(2-hydroxyacetyl)-4-methylpyrrolidin-3-yl)oxy)-5-(4-((4-(4-(oxetan-3-yl)piperazin-1-yl)phenyl)amino)-1,3,5-triazin-2-yl)benzonitrile]	30 nM	8 nM	≥ 1000 nM	–
N#Cc1cc(-c2ncnc(Nc3ccc(N4CCN(C5COC5)CC4)cc3)n2)ccc1O[C@@H]1CN(C(=O)CO)C[C@H]1F [Example 193, 2-(((3R,4R)-4-fluoro-1-(2-hydroxyacetyl)pyrrolidin-3-yl)oxy)-5-(4-((4-(4-(oxetan-3-yl)piperazin-1-yl)phenyl)amino)-1,3,5-triazin-2-yl)benzonitrile]	48 nM	14 nM	≥ 1000 nM	–
N#Cc1cc(-c2ncnc(Nc3ccc(N4CCN(C5COC5)CC4)cc3)n2)ccc1OC1CNCC1(F)F (stereo not drawn) [Example 194, 2-((4,4-difluoropyrrolidin-3-yl)oxy)-5-(4-((4-(4-(oxetan-3-yl)piperazin-1-yl)phenyl)amino)-1,3,5-triazin-2-yl)benzonitrile]	29 nM	6 nM	308 nM	–
CS(=O)(=O)N1CC[C@@H](Oc2ccc(-c3ncnc(Nc4ccc(N5CCN(C6COC6)CC5)cc4)n3)cc2C#N)C1 [Example 197, (R)-2-((1-(methylsulfonyl)pyrrolidin-3-yl)oxy)-5-(4-((4-(4-(oxetan-3-yl)piperazin-1-yl)phenyl)amino)-1,3,5-triazin-2-yl)benzonitrile]	79 nM	26 nM	173 nM	–
C[C@H](O)C(=O)N1CC(Oc2ccc(-c3ncnc(Nc4ccc(N5CCN(C6COC6)CC5)cc4)n3)cc2C#N)C(F)(F)C1 (stereo partly drawn) [Example 198, 2-((4,4-difluoro-1-((S)-2-hydroxypropanoyl)pyrrolidin-3-yl)oxy)-5-(4-((4-(4-(oxetan-3-yl)piperazin-1-yl)phenyl)amino)-1,3,5-triazin-2-yl)benzonitrile]	68 nM	10 nM	265 nM	–
N#Cc1cc(-c2ncnc(Nc3ccc(N4CCN(C5COC5)CC4)cc3)n2)ccc1O[C@@H]1CCC(=O)NC1 [Example 199, (R)-5-(4-((4-(4-(oxetan-3-yl)piperazin-1-yl)phenyl)amino)-1,3,5-triazin-2-yl)-2-((6-oxopiperidin-3-yl)oxy)benzonitrile]	6 nM	4 nM	200 nM	–
N#Cc1cc(-c2ncnc(Nc3ccc(N4CCN(C5COC5)CC4)cc3)n2)ccc1N1CC[C@@H](F)C1 [Example 200, (R)-2-(3-fluoropyrrolidin-1-yl)-5-(4-((4-(4-(oxetan-3-yl)piperazin-1-yl)phenyl)amino)-1,3,5-triazin-2-yl)benzonitrile]	7 nM	3 nM	109 nM	–
N#Cc1cc(-c2ncnc(Nc3ccc(N4CCN(C5COC5)CC4)cc3)n2)ccc1N1CC[C@H](F)C1 [Example 201, (S)-2-(3-fluoropyrrolidin-1-yl)-5-(4-((4-(4-(oxetan-3-yl)piperazin-1-yl)phenyl)amino)-1,3,5-triazin-2-yl)benzonitrile]	5 nM	1 nM	69 nM	–
